Measured values published in patent publication US9611278B2 (Merck Sharp & Dohme Corp., priority 2013, dated 2017).
pEC50: −log10 of the molar value.

Tests used:
[1] = biological target: T1, sGC α1/β1 heterodimer stably expressed in CHO-K1 cells (CHO-K1/sGC) (Homo sapiens, UniProt Q02108+Q02153); experiment: Cell-based sGC Functional Assay (CASA Assay); details: for Emax: CHO-K1, activation as percentage of maximum cGMP production of Compound A (set to 100%), read-out: % Act.; for pEC50: inflection point of cGMP generation in CHO-K1/sGC cells, 4P fit, 1 hr at 37° C., read-out: IP
T1 construct: expressed in transfected cells
T1 sequence (Q02108 1-690): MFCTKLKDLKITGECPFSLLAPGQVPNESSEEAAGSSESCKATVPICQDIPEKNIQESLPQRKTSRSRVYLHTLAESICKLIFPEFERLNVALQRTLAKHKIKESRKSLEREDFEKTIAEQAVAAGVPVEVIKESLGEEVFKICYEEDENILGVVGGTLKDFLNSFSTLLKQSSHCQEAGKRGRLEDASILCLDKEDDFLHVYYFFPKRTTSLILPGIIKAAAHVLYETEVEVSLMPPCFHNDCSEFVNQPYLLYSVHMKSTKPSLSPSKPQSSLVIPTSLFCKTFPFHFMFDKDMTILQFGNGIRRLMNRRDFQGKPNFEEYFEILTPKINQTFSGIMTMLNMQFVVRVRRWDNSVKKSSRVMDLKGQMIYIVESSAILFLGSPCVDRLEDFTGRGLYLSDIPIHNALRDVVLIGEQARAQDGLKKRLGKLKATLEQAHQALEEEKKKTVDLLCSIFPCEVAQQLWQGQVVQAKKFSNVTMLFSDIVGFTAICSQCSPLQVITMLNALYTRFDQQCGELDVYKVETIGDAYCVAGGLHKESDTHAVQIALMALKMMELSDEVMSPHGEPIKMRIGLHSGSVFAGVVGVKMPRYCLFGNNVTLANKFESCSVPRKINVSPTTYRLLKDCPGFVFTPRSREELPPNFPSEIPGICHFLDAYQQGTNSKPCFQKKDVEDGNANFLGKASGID
T1 sequence (Q02153 1-619): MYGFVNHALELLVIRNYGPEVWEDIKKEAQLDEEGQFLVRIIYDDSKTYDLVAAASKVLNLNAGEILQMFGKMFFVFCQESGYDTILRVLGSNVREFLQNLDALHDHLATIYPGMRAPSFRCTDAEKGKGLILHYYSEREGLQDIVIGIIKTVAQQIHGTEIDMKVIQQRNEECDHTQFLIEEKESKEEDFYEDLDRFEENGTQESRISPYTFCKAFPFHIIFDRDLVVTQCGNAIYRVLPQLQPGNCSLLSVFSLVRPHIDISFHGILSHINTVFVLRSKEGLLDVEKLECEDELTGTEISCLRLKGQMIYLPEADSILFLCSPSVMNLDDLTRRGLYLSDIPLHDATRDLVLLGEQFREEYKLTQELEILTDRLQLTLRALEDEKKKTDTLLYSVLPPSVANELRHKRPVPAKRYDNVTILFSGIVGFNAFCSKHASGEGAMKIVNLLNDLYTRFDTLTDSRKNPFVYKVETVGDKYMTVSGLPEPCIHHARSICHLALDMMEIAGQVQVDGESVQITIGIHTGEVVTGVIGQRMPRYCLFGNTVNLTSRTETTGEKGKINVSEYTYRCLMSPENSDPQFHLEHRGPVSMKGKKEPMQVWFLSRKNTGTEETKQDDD
In short: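 CHO-K1 cells stably expressing human sGC α1/β1 were incubated with compound for 1 h at 37 °C in buffer with 0.5 mM IBMX and 2.5% DMSO, with or without 1 μM DETA-NO. Intracellular cGMP was read by HTRF and expressed as percentage of maximal activation by reference activator Compound A. Values came from a 4-parameter fit.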

[2] = tested on: Spontaneously hypertensive rats (SHR); experiment: Acute Efficacy in Spontaneously Hypertensive Rats (SHR); type: in vivo, rat; details: single oral dose
Text: Spontaneously hypertensive rats (SHR, male, Charles River) were implanted with DSI TA11PA-C40 telemetry device (Data Sciences, Inc., St. Paul, Minn.) under isoflurane or ketamine/metomidine anesthesia. The telemetry unit catheter was inserted into the descending aorta via the femoral artery and the telemetry device was implanted subcutaneously in the left flank area. Animals were allowed to recover from surgery for 14 days before the start of any studies. Blood pressure, heart rate, and activity signals from conscious, freely moving rats were recorded continuously for 30 seconds every 10 min. On the day prior to administration of compound, a single oral dose of vehicle (10% transcutol/20% Cremophor/70% water) was administered to all animals to establish baseline control data. The blood pressure lowering efficacy of compound (PO) or vehicle was evaluated following a single oral gavage. Data were collected as hourly averages, and changes in blood pressure were calculated by subtracting control baseline data on an hourly basis. Animals were maintained on normal diet with a 12 hour light-dark cycle.
Maximum peak decreases of systolic blood pressure (SBP) in SHR at a particular P.O. dose (mpk milligrams per kilogram) for the following representative compounds are provided in Table 9. Category A=SBP in SHRs <15 mmHg; Category B=SBP in SHRs 15-25 mmHg; Category C=SBP in SHRs >25 mmHg

For `CC(C)n1cc(C2(C)C(=O)Nc3nc(-c4nc(CCC(F)(F)C(F)(F)F)nc5c4cnn5C)nc(N)c32)nn1` (single isomer, unassigned) [Example 56, 4-Amino-5-(1-isopropyl-1H-1,2,3-triazol-4-yl)-5-methyl-2-(1-methyl-6-(3,3,4,4,4-pentafluorobutyl)-1H-pyrazolo[3,4-d]pyrimidin-4-yl)-5,7-dihydro-6H-pyrrolo[2,3-d]pyrimidin-6-one], the Emax [1] was 126%, the pEC50 [1] was 5.99 and the “Category: maximum peak decrease of systolic blood pressure (SBP) in SHR” value (from here on “Category: maximum peak decrease”) ([2]; P.O. 1 mpk) was “C (Category C=SBP in SHRs >25 mmHg)”.

In the case of `CCn1cc(C2(CC)C(=O)Nc3nc(-c4nc(CCC(F)(F)C(F)(F)F)nc5c4cnn5C)nc(N)c32)nn1` (single isomer, unassigned) [Example 66, 4-Amino-5-ethyl-5-(1-ethyl-1H-1,2,3-triazol-4-yl)-2-(1-methyl-6-(3,3,4,4,4-pentafluorobutyl)-1H-pyrazolo[3,4-d]pyrimidin-4-yl)-5,7-dihydro-6H-pyrrolo[2,3-d]pyrimidin-6-one], the Emax [1] was 108%, the pEC50 [1] was 6.49 and the “Category: maximum peak decrease” value ([2]; P.O. 1 mpk) was “B (Category B=SBP in SHRs 15-25 mmHg)”.

In the case of `[2H]C([2H])([2H])n1ncc2c(-c3nc(N)c4c(n3)NC(=O)C4(C)c3cn(C(C)C)nn3)nc(CCC(F)(F)C(F)(F)F)nc21` (stereo not drawn) [Example 67, 4-Amino-5-(1-isopropyl-1H-1,2,3-triazol-4-yl)-5-methyl-2-(1-(methyl-d3)-6-(3,3,4,4,4-pentafluorobutyl)-1H-pyrazolo[3,4-d]pyrimidin-4-yl)-5,7-dihydro-6H-pyrrolo[2,3-d]pyrimidin-6-one], the “% Act.” value ([1]; activation as percentage of maximum cGMP production of Compound A (set to 100%)) was 128%, the pEC50 [1] was 6.92 and the “Category: maximum peak decrease” value ([2]; P.O. 0.3 mpk) was “B (Category B=SBP in SHRs 15-25 mmHg)”.

With `[2H]C([2H])([2H])n1ncc2c(-c3nc(N)c4c(n3)NC(=O)C4(C)c3noc(C)n3)nc(CCC(F)(F)C(F)(F)F)nc21` (stereo not drawn) [Example 19, 4-Amino-5-methyl-5-(5-methyl-1,2,4-oxadiazol-3-yl)-2-(1-(methyl-d3)-6-(3,3,4,4,4-pentafluorobutyl)-1H-pyrazolo[3,4-d]pyrimidin-4-yl)-5,7-dihydro-6H-pyrrolo[2,3-d]pyrimidin-6-one] the Emax [1] was 157%, the pEC50 [1] was 6.65 and the “Category: maximum peak decrease” value ([2]; P.O. 1 mpk) was “C (Category C=SBP in SHRs >25 mmHg)”.

For `Cn1ncc2c(-c3nc(N)c4c(n3)NC(=O)C4(C)c3ccc(F)cn3)nc(CCC(F)(F)C(F)(F)F)nc21` (stereo not drawn) [Example 1, 4-Amino-5-(5-fluoropyridin-2-yl)-5-methyl-2-(1-methyl-6-(3,3,4,4,4-pentafluorobutyl)-1H-pyrazolo[3,4-d]pyrimidin-4-yl)-5H-pyrrolo[2,3-d]pyrimidin-6(7H)-one], the Emax [1] was 123%, the pEC50 [1] was 7.26 and the “Category: maximum peak decrease” value ([2]; P.O. 0.3 mpk) was “C (Category C=SBP in SHRs >25 mmHg)”.

For `CC(C)n1cc(C2(C)C(=O)Nc3nc(-c4nc(CCCC(F)(F)F)nc5c4cnn5C)nc(N)c32)nn1` (stereo not drawn) [Example 78, 4-Amino-5-(1-isopropyl-1H-1,2,3-triazol-4-yl)-5-methyl-2-(1-methyl-6-(4,4,4-trifluorobutyl)-1H-pyrazolo[3,4-d]pyrimidin-4-yl)-5,7-dihydro-6H-pyrrolo[2,3-d]pyrimidin-6-one], the Emax [1] was 103%, the pEC50 [1] was 6.43 and the “Category: maximum peak decrease” value ([2]; P.O. 1 mpk) was “C (Category C=SBP in SHRs >25 mmHg)”.

With `[2H]C([2H])([2H])n1ncc2c(-c3nc(N)c4c(n3)NC(=O)C4(c3nnc(C4CC4)o3)C3CC3)nc(CCC(F)(F)C(F)(F)F)nc21` (stereo not drawn) [Example 38, 4-Amino-5-cyclopropyl-5-(5-cyclopropyl-1,3,4-oxadiazol-2-yl)-2-(1-(methyl-d3)-6-(3,3,4,4,4-pentafluorobutyl)-1H-pyrazolo[3,4-d]pyrimidin-4-yl)-5,7-dihydro-6H-pyrrolo[2,3-d]pyrimidin-6-one] the Emax [1] was 165%, the pEC50 [1] was 6.58 and the “Category: maximum peak decrease” value ([2]; P.O. 1 mpk) was “C (Category C=SBP in SHRs >25 mmHg)”.

With `Cn1ncc2c(-c3nc(N)c4c(n3)NC(=O)C4(C)c3ccc(F)cn3)nc(CCCC(F)(F)F)nc21` (stereo not drawn) [Example 4, 4-Amino-5-(5-fluoropyridin-2-yl)-5-methyl-2-(1-methyl-6-(4,4,4-trifluorobutyl)-1H-pyrazolo[3,4-d]pyrimidin-4-yl)-5H-pyrrolo[2,3-d]pyrimidin-6(7H)-one] the Emax [1] was 115%, the pEC50 [1] was 7.27 and the “Category: maximum peak decrease” value ([2]; P.O. 0.3 mpk) was “B (Category B=SBP in SHRs 15-25 mmHg)”.

`Cn1ncc2c(-c3nc(N)c4c(n3)NC(=O)C4(C)n3cnnn3)nc(CCC(F)(F)C(F)(F)F)nc21` (single isomer, unassigned) [Example 84, 4-Amino-5-methyl-2-(1-methyl-6-(3,3,4,4,4-pentafluorobutyl)-1H-pyrazolo[3,4-d]pyrimidin-4-yl)-5-(1H-tetrazol-1-yl)-5,7-dihydro-6H-pyrrolo[2,3-d]pyrimidin-6-one] was tested, and the Emax [1] was 111%, the pEC50 [1] was 6.44 and the “Category: maximum peak decrease” value ([2]; P.O. 1 mpk) was “A (Category A=SBP in SHRs <15 mmHg)”.

With `CCn1cc(C2(C)C(=O)Nc3nc(-c4nc(CCC(F)(F)C(F)(F)F)nc5c4cnn5C)nc(N)c32)nn1` (single isomer, unassigned) [Example 69, 4-Amino-5-(1-ethyl-1H-1,2,3-triazol-4-yl)-5-methyl-2-(1-methyl-6-(3,3,4,4,4-pentafluorobutyl)-1H-pyrazolo[3,4-d]pyrimidin-4-yl)-5,7-dihydro-6H-pyrrolo[2,3-d]pyrimidin-6-one] the Emax [1] was 105%, the pEC50 [1] was 6.59 and the “Category: maximum peak decrease” value ([2]; P.O. 1 mpk) was “C (Category C=SBP in SHRs >25 mmHg)”.

For `[2H]C([2H])([2H])n1ncc2c(-c3nc(N)c4c(n3)NC(=O)C4(c3cn(C)nn3)C3CC3)nc(CCC(F)(F)C(F)(F)F)nc21` (single isomer, unassigned) [Example 54, 4-Amino-5-cyclopropyl-5-(1-methyl-1H-1,2,3-triazol-4-yl)-2-(1-(methyl-d3)-6-(3,3,4,4,4-pentafluorobutyl)-1H-pyrazolo[3,4-d]pyrimidin-4-yl)-5,7-dihydro-6H-pyrrolo[2,3-d]pyrimidin-6-one], the Emax [1] was 93%, the pEC50 [1] was 6.64 and the “Category: maximum peak decrease” value ([2]; P.O. 1 mpk) was “B (Category B=SBP in SHRs 15-25 mmHg)”.

For `Cn1cc(C2(C3CC3)C(=O)Nc3nc(-c4nc(CCC(F)(F)C(F)(F)F)nc5c4cnn5C)nc(N)c32)nn1` (single isomer, unassigned) [Example 55, 4-Amino-5-cyclopropyl-5-(1-methyl-1H-1,2,3-triazol-4-yl)-2-(1-methyl-6-(3,3,4,4,4-pentafluorobutyl)-1H-pyrazolo[3,4-d]pyrimidin-4-yl)-5,7-dihydro-6H-pyrrolo[2,3-d]pyrimidin-6-one], the Emax [1] was 118%, the pEC50 [1] was 6.60 and the “Category: maximum peak decrease” value ([2]; P.O. 1 mpk) was “B (Category B=SBP in SHRs 15-25 mmHg)”.
